Assays:
Format in all cases: in vivo, pig
[1] = Faecal pH, dry matter and faeces (diarrhoea) scoring, Example 4
Excerpt: One hundred and ninety two piglets were weaned at twenty four days of age, with an initial live weight of 6.4±0.785 Kg and assigned to one of four dietary treatments or 21 days post weaning. The dietary treatments consisted of (T1) basal diet, (T2) basal diet with 300 ppm LAM, (T3) basal diet with 236 ppm FUC, (T4) Basal diet with 300 ppm LAM and 236 ppm FUC. Diets were formulated to have identical concentrations of digestible energy (DE) (16 MJ/Kg) and ileal digestible lysine (14 g/Kg). All amino acid requirements were met relative to lysine (Close, 1994). Chromium III oxide was added to the diets for determination of nutrient digestibility. The LAM and FUC were derived from Laminaria hyperborea.
Piglets were housed in groups of 4 and offered feed twice daily. Water was supplied ad-libitum. Any pig displaying symptoms of illness was treated appropriately and recorded. Pigs were weighed on day 0 (day of weaning), 7, 14 and 21. Feed intake was monitored weekly. Fresh faecal samples were taken on day 10 and were analysed for E. coli and Lactobacilli concentrations. Faeces samples were collected from each pen on day 12-17 and were retained for chemical analysis. Fresh faecal samples were removed on day 14 and were frozen and retained for volatile fatty acid analysis. Fresh faecal samples were taken on day 17 for pH determination.
A scoring system was applied to indicate its presence and severity. The following scoring system was used: 1=hard, 2=slightly soft, 3=soft, partially formed, 4=loose, semi-liquid and 5=watery, mucous-like.

IL-10 = experiment: Cytokine gene expression in unchallenged ileum and colon tissue (qPCR), Example 5; conditions: unchallenged ileum or colon tissue; LAM 300, 600 ppm
Protocol: (§1) 21 pigs with an initial weight of 17.9±2.2 Kg were assigned to one of the 3 dietary treatments: (T1) control; (T2) basal diet+300 ppm LAM; (T3) basal diet+600 ppm LAM. Experimental feeding continued for 21 days ad libitum. Diets were formulated to have similar digestible energy (DE) (14.4 MJ/Kg) and ileal digestible lysine (12.5 g/Kg).
(§2) Ileal and colonic tissues was stabilised in RNAlater® solution and stored overnight at 4° C. The following day, RNAlater® was removed and samples were stored at −86° C. prior to RNA extraction.
(§3) Tissue samples for RNA extraction were removed from −86° C. and homogenised. 500 μl of lysis solution/2-ME was added to each sample and these were mechanically disrupted using one 5 mm stainless steel bead per sample. These were then placed in a Tissue Lyser (Qiagen) and lysates were homogenised for 3 mins and transferred to a GenElute Filtration Column (Sigma Aldrich) and RNA was extracted. 1 µg of total RNA was used for cDNA synthesis using oligo(dT)20 primer in a final reaction volume of 20 μl with Superscript™ III First-Strand synthesis system for reverse transcriptase-polymerase chain reaction (RT-PCR) (Invitrogen Life Technologies, Carlsbad, Calif.). At the last step of cDNA synthesis, treatment with E. coli RNase H (Invitrogen Corp.) was performed to digest the remaining RNA/mRNA template, resulting in the production of the single-stranded cDNA template for subsequent qRT-PCR reactions.
(§4) All porcine primers for the cytokine genes interferon gamma (IFN-γ), interleukin-1α (IL-1α), IL-6, IL-8, IL-10, IL-17, tumour necrosis factor (TNF-α), the mucin genes (MUCs 1, 2, 4, 5AC, 12, 13 and 20) and three reference genes, β-actin (ACTB), Glyceraldehyde-3-phosphate dehydrogenase (GAPDH) and Peptidylprolyl isomerase A (PPIA), were designed using Primer Express™ (PE Applied Biosystems, Foster City, Calif.) and synthesised by MWG Biotech (Milton Keynes, UK). These reference genes were previously validated for use in porcine tissue and qPCR was then carried out on the cDNA using the ABI PRISM 7900HT Fast sequence detection system for 96-well plates (Applied Biosystems, Foster City, Calif.). All samples were prepared in duplicate using SYBR Green Fast PCR Master Mix (Applied Biosystems, Foster City, Calif.), cDNA as template and specific primers for the genes selected. For each reaction 5 μl cDNA, 1.2 μl (forward and reverse primer mix, 5 μM), 10 μl Fast SYBR Green PCR Master Mix (PE Applied Biosystems, Foster City, Calif.) was added and made up to a final volume of 20 μl. The two step PCR program was as follows: 95° C. for 10 minutes for 1 cycle followed by 95° C. for 15 seconds and 60° C. for 1 minute for 40 cycles. The raw Ct values for the reference genes were converted to relative quantities using the formula Q=E ^ΔCt where E is the PCR efficiency of the assay and ^ΔCt is the value calculated for the difference between the lowest Ct value for each gene minus the Ct value of the sample in question. The relative quantities of the endogenous controls were then analysed for stability in geNorm (Vandesompele et al., 2002). The stability ‘M’ value generated by the geNorm application for the selected endogenous controls (ACTB, GAPDH and PPIA) indicated their suitability as endogenous controls for these intestinal samples. The geometric mean of the relative quantities for ACTB, GAPDH and PPIA (normalisation factor) was then calculated using geNorm. The relative quantities of each target gene were divided by the normalisation factor (obtained in geNorm) for that sample to give the final normalised relative expression.

IFN-γ = experiment: as above; conditions: unchallenged ileum or colon tissue; LAM 300, 600 ppm
Protocol: as §1, §2, §3, §4

TNF-α = experiment: as above; conditions: unchallenged ileum or colon tissue; LAM 300, 600 ppm
Protocol: as §1, §2, §3, §4

IL-8 = experiment: as above; conditions: unchallenged ileum or colon tissue; LAM 300, 600 ppm
Protocol: as §1, §2, §3, §4

IL-6 = experiment: as above; conditions: unchallenged ileum or colon tissue; LAM 300, 600 ppm
Protocol: as §1, §2, §3, §4

IL-17 = experiment: as above; conditions: unchallenged ileum or colon tissue; LAM 300, 600 ppm
Protocol: as §1, §2, §3, §4

Lactobacilli = experiment: Microbial analysis of ileum and colon digesta, Example 5; conditions: ileum; LAM 0-600 ppm
Excerpt: (§5) 21 pigs with an initial weight of 17.9±2.2 Kg were assigned to one of the 3 dietary treatments: (T1) control; (T2) basal diet+300 ppm LAM; (T3) basal diet+600 ppm LAM. Experimental feeding continued for 21 days ad libitum. Diets were formulated to have similar digestible energy (DE) (14.4 MJ/Kg) and ileal digestible lysine (12.5 g/Kg). Post-slaughter, digestive tract was removed by dissection and digesta was removed from the ileum. Each digesta sample was serially diluted in maximum recovery diluent (MRD, Oxoid, Basingstoke, UK), and spread plated onto selective agars. Bifidobacteria, Lactobacilli and Enterobacteria species were isolated according to the methods described by Pierce et al. (2005). Digesta samples used to measure VFA concentration were collected from the caecum and the same location in the ileum and colon. VFA analysis was performed using gas liquid chromatography (GLC) according to the method described by Pierce et al., (2005).

Enterobacteriaceae = experiment: as above
Excerpt: as §5

Bifidobacteria = experiment: as above; conditions: ileum; LAM 0-600 ppm
Excerpt: as §5

Q: Which “faecal DM content” value ([1]; LAM supplemented diets (300 ppm) v unsupplemented (26.24), in % (unit assumed)) does the source give for laminarin here?
A: 28.64

Q: And the faecal score ([1]; days 0-21, compared to the basal diet)?
A: no effect

Q: What about the faecal score ([1]; days 7-14, scale 1 (hard) to 5 (watery), LAM supplemented diets v 2.57) of the same substance?
A: 2.05

Q: And the IL-10 gene expression (IL-10)?
A: no effects

Q: And the IFN-γ gene expression (IFN-γ)?
A: no effects

Q: What about the TNF-α gene expression (TNF-α) of the same substance?
A: no effects

Q: And the IL-8 gene expression (IL-8)?
A: no effects

Q: What about the IL-6 gene expression (IL-6) of the same substance?
A: no effects

Q: What about the IL-17 gene expression (IL-17) of the same substance?
A: no effects

Q: And the Lactobacilli populations (Lactobacilli)?
A: no effect

Q: What about the Enterobacteriaceae (Enterobacteriaceae; colon, LAM from Laminaria digitata, 300 and 600 ppm) of the same substance?
A: decrease

Q: What about the Enterobacteriaceae populations (Enterobacteriaceae; ileum, LAM 0-600 ppm) of the same substance?
A: no effect

Q: And the Bifidobacteria populations (Bifidobacteria)?
A: no effect

— patent US9241951B2, “Of gastrointestinal health, immunity and performance by dietary intervention” (BIOATLANTIS LTD, priority 2009, dated 2016)
